44 compounds from ChEMBL document CHEMBL1157461, “Potent non-nucleoside inhibitors of the measles virus RNA-dependent RNA polymerase complex” (J Med Chem, 2008) can be followed below.

The nature of series [1]: Cytotoxicity against african green monkey Vero cells by MTT assay. Particulars: chlorocebus sabaeus. The series is classed as cell-based.
In series [2] the test system is Measles morbillivirus. In words: Antiviral activity against Measles virus Alaska in Vero cells assessed as inhibition of cytopathic effect. The series is classed as functional, organism-based.
The nature of series [3]: (§1) Selectivity index, ratio of CC50 for african green monkey Vero cells to EC50 for Measles virus Alaska. The series is classed as toxicity, cell-based. Particulars: read-out: Ratio CC50/EC50.
Series [4] has as its system Measles morbillivirus. In words: Antiviral activity against Measles virus Alaska in Vero cells assessed as reduction of viral titer. The format is functional, organism-based.
A short description of series [5]: as §1. The series is classed as toxicity, cell-based. Particulars: read-out: Ratio CC50/EC50. This is another data set of the same source.
Series [6] has as its system Measles morbillivirus. The series can be described thus: Antiviral activity against Measles virus Edmonston. The format is functional, organism-based.
Series [7] in a line: Cytotoxicity against african green monkey Vero cells by trypan blue exclusion assay. The format is cell-based. Particulars: chlorocebus sabaeus.
Series [8] can be described thus: Selectivity index, ratio of CC50 for Vero cells to EC50 for Measles virus Leningrad 16. The series is classed as toxicity, cell-based. Particulars: monkey, read-out: Ratio CC50/EC50.

A value given as a limit tells only on which side of the number the result lay.

As for `Cn1nc(C(F)(F)F)cc1C(=O)Nc1ccc(S(=O)(=O)N2CCC[C@H]2C(=O)O)cc1`, the CC50 in series [1] is above 300 µM. Besides, in series [2], the 50% effective concentration (EC50) came to 23 µM.

`Cn1nc(C(F)(F)F)cc1C(=O)Nc1ccc(S(=O)(=O)N2CCOCC2)cc1` yielded a cytotoxic concentration (CC50) in series [1] above 300 µM. Also, the 50% effective concentration (EC50) in series [2] was found to be 43 µM.

On to `Cn1nc(C(F)(F)F)cc1C(=O)Nc1ccc(S(=O)(=O)n2ccc3ccccc32)cc1`, for which the 50% effective concentration (EC50) in series [2] is above 13 µM.

Turning to `Cn1nc(C(F)(F)F)cc1C(=O)Nc1ccc(S(=O)(=O)N2CCCCC2)cc1`, the half-maximal cytotoxic concentration (CC50) in series [1] was above 300 µM. The selectivity ratio is above 130 in series [3] and 14200 in series [5]. The values for the 50% effective concentration (EC50) in series [4] and in series [2] were 0.014 µM and below 2.3 µM, respectively.

As to `Cn1nc(C(F)(F)F)cc1C(=O)Nc1ccc(S(=O)(=O)N2CCNCC2)cc1`, the concentration for a half-maximal effect (EC50) in series [2] turned out to be 28 µM.

The compound `Cn1nc(C(F)(F)F)cc1C(=O)Nc1ccc(S(=O)(=O)N2CCCCC2C(=O)O)cc1` (configuration not stated) showed a CC50 in series [1] above 300 µM. In series [2], the EC50 is above 75 µM.

On to `NC(=O)c1ccc([N+](=O)[O-])cc1NC(=O)Cc1ccccc1`, for which the response in series [6] was half-maximal at 0.6 µM (EC50).

As to `COC(=O)c1ccccc1-n1nc(C(F)(F)F)cc1C(=O)Nc1ccc(S(=O)(=O)N2CCCC2)cc1`, the EC50 in series [4] and in series [2] was above 75 µM each time. In series [7], this compound registered a cytotoxic concentration (CC50) above 300 µM.

In series [1], `CC1CCCCN1S(=O)(=O)c1ccc(NC(=O)c2cc(C(F)(F)F)nn2C(C)C)cc1` (configuration not stated) had a cytotoxic concentration (CC50) above 300 µM. In addition, in series [2], the EC50 was above 75 µM.

`CC1CCCCN1S(=O)(=O)c1ccc(NC(=O)c2cc(C(F)(F)F)nn2Cc2ccccc2)cc1` (configuration not stated): the EC50 in series [4] and in series [2] was above 19 µM each time. Also, the CC50 in series [7] stood at 19 µM.

For the compound `CC1CCCCN1S(=O)(=O)c1ccc(NC(=O)c2cc(C(F)(F)F)nn2C)cc1` (configuration not stated), the figures for the CC50 in series [1] and in series [7] were above 300 µM and 54 µM, respectively. Further, the EC50 in series [4] is 0.029 µM; in series [2], below 2.3 µM.

`Cn1nc(C(F)(F)F)cc1C(=O)Nc1ccc(S(=O)(=O)N2CCCC2)cc1` showed an EC50 in series [6] of 0.25 µM.

With `CCn1nc(C(F)(F)F)cc1C(=O)Nc1ccc(S(=O)(=O)N2CCCCC2C)cc1` (configuration not stated), in series [1], half-maximal cytotoxicity (CC50) was put at 30 µM. Besides, the EC50 was 0.055 µM in series [4] and below 2.3 µM in series [2].

Regarding `CC(C)CN(CC(C)C)S(=O)(=O)c1ccc(NC(=O)c2cc(C(F)(F)F)nn2C)cc1`, in series [1], the midpoint of cytotoxicity, the CC50, lay at 13.8 µM. Further, in series [2], the 50% effective concentration (EC50) is above 13.8 µM.

`CN(C)S(=O)(=O)c1ccc(NC(=O)c2cc(C(F)(F)F)nn2C)cc1` had a half-maximal cytotoxic concentration (CC50) in series [1] above 300 µM. Also, in series [2], the concentration giving a half-maximal response (EC50) came out at 6.3 µM.

Turning to `Cn1nc(C(F)(F)F)cc1C(=O)Nc1ccc(S(=O)(=O)N2CCC(C(F)(F)F)CC2)cc1`, it took 159 µM to reach half-maximal cytotoxicity in series [1] (CC50). The 50% effective concentration (EC50) amounted to 0.02 µM in series [4] and 2.3 µM in series [2].

`COC=C1CCN(S(=O)(=O)c2ccc(NC(=O)c3cc(C(F)(F)F)nn3C)cc2)CC1` gave a half-maximal cytotoxic concentration (CC50) in series [1] of 92 µM. In series [2], the EC50 was above 75 µM.

For `CCCN(CCC)S(=O)(=O)c1ccc(NC(=O)c2cc(C(F)(F)F)nn2C)cc1`, the CC50 in series [1] was above 300 µM. Also, the EC50 in series [4] is 0.19 µM; in series [2], below 2.3 µM.

Consider `CC(C)N(C(C)C)S(=O)(=O)c1ccc(NC(=O)c2cc(C(F)(F)F)nn2C)cc1`, for which, in series [1], the CC50 was above 300 µM. For the same compound, the EC50 in series [4] was found to be 0.53 µM; in series [2], 3.5 µM.

Consider `C=CCN(CC=C)S(=O)(=O)c1ccc(NC(=O)c2cc(C(F)(F)F)nn2C)cc1`, for which it took 34 µM to reach half-maximal cytotoxicity in series [1] (CC50). For the same compound, the 50% effective concentration (EC50) in series [2] came to 3.3 µM.

With `CC1CCCC(C)N1S(=O)(=O)c1ccc(NC(=O)c2cc(C(F)(F)F)nn2C)cc1` (configuration not stated), the CC50 in series [1] is above 300 µM; in series [7] it was 328 µM. Moreover, the concentration for a half-maximal effect (EC50) in series [4] was 0.014 µM; in series [2], below 2.3 µM.

`Cn1nc(C(F)(F)F)cc1C(=O)Nc1ccc(S(=O)(=O)N2CCC(NC(=O)OC(C)(C)C)CC2)cc1`: the half-maximal cytotoxic concentration (CC50) in series [1] is above 300 µM. In series [2], the EC50 amounted to 14.1 µM.

Turning to `CCC1CCCCN1S(=O)(=O)c1ccc(NC(=O)c2cc(C(F)(F)F)nn2C)cc1` (configuration not stated), the CC50 was above 300 µM in series [1] and 14 µM in series [7]. The concentration for a half-maximal effect (EC50) in series [4] was 0.087 µM; in series [2], below 2.3 µM.

As to `Cn1nc(C(F)(F)F)cc1C(=O)Nc1ccc(S(=O)(=O)N2CCCC(C(=O)O)C2)cc1` (configuration not stated), in series [1], the CC50 is above 300 µM. For the same compound, the EC50 in series [2] is above 75 µM.

In series [1], `Cn1nc(C(F)(F)F)cc1C(=O)Nc1ccc(S(=O)(=O)N2CCC(O)CC2)cc1` showed a CC50 of 274 µM. Moreover, the EC50 was found to be 0.57 µM in series [4] and 6.8 µM in series [2].

On to `Cn1nc(C(F)(F)F)cc1C(=O)Nc1ccc(S(=O)(=O)N2CCC(N)CC2)cc1`, for which, in series [1], the 50% cytotoxic concentration (CC50) is above 300 µM. Moreover, in series [2], the concentration for a half-maximal effect (EC50) was above 75 µM.

Compound `COC(=O)C1CCCCN1S(=O)(=O)c1ccc(NC(=O)c2cc(C(F)(F)F)nn2C)cc1` (configuration not stated) showed a CC50 in series [1] of 136 µM. Moreover, in series [2], the EC50 worked out at 10 µM.

In the case of `Cn1nc(C(F)(F)F)cc1C(=O)Nc1ccc(S(=O)(=O)N2CCCCC2C(=O)OC(C)(C)C)cc1` (configuration not stated), in series [1], the CC50 stood at 38 µM. In addition, the EC50 in series [2] is above 38 µM.

Regarding `Cn1nc(C(F)(F)F)cc1C(=O)Nc1ccc(S(=O)(=O)N2CCCCC2CO)cc1` (configuration not stated), the figures for the EC50 in series [4] and in series [2] were 0.85 µM and below 2.3 µM, respectively.

Compound `Cn1nc(C(F)(F)F)cc1C(=O)Nc1ccc(S(=O)(=O)N2CCN(CCOCCO)CC2)cc1` yielded a CC50 in series [1] above 300 µM. Further, the EC50 in series [2] was above 75 µM.

With `Cn1nc(C(F)(F)F)cc1C(=O)Nc1ccc(S(=O)(=O)N2CCN(C(=O)OC(C)(C)C)CC2)cc1`, in series [1], the half-maximal cytotoxic concentration (CC50) was above 300 µM. The concentration for a half-maximal effect (EC50) in series [2] is above 75 µM.

Compound `CC1CCCCN1S(=O)(=O)c1ccccc1NC(=O)c1cc(C(F)(F)F)nn1C` (configuration not stated) showed a CC50 in series [1] above 300 µM. In series [2], the concentration for a half-maximal effect (EC50) was above 75 µM.

Regarding `Cn1nc(C(F)(F)F)cc1C(=O)Nc1ccc(S(=O)(=O)OC2CCCCC2)cc1`, the CC50 in series [1] was above 300 µM. Moreover, the EC50 in series [2] is above 75 µM.

The compound `CC1CCCCN1S(=O)(=O)c1cccc(NC(=O)c2cc(C(F)(F)F)nn2C)c1` (configuration not stated) had a CC50 in series [1] of 84 µM. Also, in series [2], the EC50 is above 75 µM.

With `O=C(O)c1ccccc1-n1nc(C(F)(F)F)cc1C(=O)Nc1ccc(S(=O)(=O)N2CCCC2)cc1`, the EC50 in series [4] and in series [2] was above 75 µM each time. The CC50 in series [7] was above 300 µM.

In series [6], `Nc1ccc(O)c(NC(=O)Cc2ccccc2)c1` showed a concentration for a half-maximal effect (EC50) of 0.26 µM.

With `Cn1nc(C(F)(F)F)c(Br)c1C(=O)Nc1ccc(S(=O)(=O)N2CCCC2)cc1`, in series [1], the half-maximal cytotoxic concentration (CC50) was determined as 95 µM. Also, in series [3], the selectivity ratio is below 1.3. Further, in series [2], the EC50 was above 75 µM.

Consider `Cn1nc(C(F)(F)F)cc1C(=O)Nc1ccc(S(=O)(=O)NC2CCCCC2)cc1`, for which, in series [1], the 50% cytotoxic concentration (CC50) was determined as 15 µM. For the same compound, the EC50 in series [2] was above 15 µM.

Regarding `CCN(CC)S(=O)(=O)c1ccc(NC(=O)c2cc(C(F)(F)F)nn2C)cc1`, the CC50 in series [1] is above 300 µM; in series [7] it was 280 µM. Besides, the figures for the concentration for a half-maximal effect (EC50) in series [4] and in series [2] were 0.019 µM and below 2.3 µM, respectively.

`Cn1nc(C(F)(F)F)cc1C(=O)Nc1ccc(S(=O)(=O)N2CCCCCCC2)cc1` had a CC50 in series [1] of 16 µM. Further, the figures for the EC50 in series [4] and in series [2] were 0.045 µM and below 2.3 µM, respectively.

On to `Cn1nc(C(F)(F)F)cc1C(=O)Nc1ccc(S(=O)(=O)N2CCCCCC2)cc1`, for which the CC50 in series [1] was above 300 µM; in series [7], 425 µM. In addition, the EC50 is 0.005 µM in series [4] and below 2.3 µM in series [2].

Turning to `CC1CCN(S(=O)(=O)c2ccc(NC(=O)c3cc(C(F)(F)F)nn3C)cc2)CC1`, the cytotoxic concentration (CC50) in series [1] was above 300 µM; in series [7] it was 53 µM. Further, the concentration for a half-maximal effect (EC50) is 0.035 µM in series [4] and below 2.3 µM in series [2].

As for `CN(C(=O)c1cc(C(F)(F)F)nn1C)c1ccc(S(=O)(=O)N2CCCCC2)cc1`, the 50% cytotoxic concentration (CC50) in series [1] stood at 286 µM. Further, the EC50 in series [2] is above 75 µM.

Turning to `NC(=O)c1ncn([C@@H]2O[C@H](CO)[C@@H](O)[C@H]2O)n1` [RIBAVIRIN], the selectivity ratio in series [8] was 14.4.

For orientation: CC50 means the concentration giving 50% cytotoxicity. The term EC50 denotes the concentration that produces a half-maximal response.
